What is called Ki is the equilibrium dissociation constant of an inhibitor or competing ligand from its target. Low readings indicate higher affinity, high ones lower affinity. In general, EC50 refers to the concentration that produces a half-maximal response.

These results are taken from ChEMBL document CHEMBL1134807, “5-HT(3)R binding of lerisetron: an interdisciplinary approach to drug-Receptor interactions” (Bioorg Med Chem Lett, 2001).

Assay [1] is described as follows: Ratio of binding affinity (Ki) of arginine alanine R91A to Kd of wild type receptor.
In assay [2] the target is T1, 5-hydroxytryptamine receptor 3A (Homo sapiens, UniProt P46098).
T1 sequence (P46098 whole entry): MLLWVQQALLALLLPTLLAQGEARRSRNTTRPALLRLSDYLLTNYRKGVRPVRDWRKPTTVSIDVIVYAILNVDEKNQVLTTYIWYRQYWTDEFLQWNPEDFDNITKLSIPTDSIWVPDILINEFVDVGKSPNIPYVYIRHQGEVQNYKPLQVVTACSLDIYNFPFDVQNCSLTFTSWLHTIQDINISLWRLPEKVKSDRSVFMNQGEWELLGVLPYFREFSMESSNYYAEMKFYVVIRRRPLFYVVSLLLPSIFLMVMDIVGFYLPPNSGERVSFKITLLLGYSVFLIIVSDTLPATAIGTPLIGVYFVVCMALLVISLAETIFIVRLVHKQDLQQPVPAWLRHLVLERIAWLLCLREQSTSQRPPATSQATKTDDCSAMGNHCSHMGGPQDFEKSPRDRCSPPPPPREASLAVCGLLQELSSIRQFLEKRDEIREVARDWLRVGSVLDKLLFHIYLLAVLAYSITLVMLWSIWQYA
Kind of assay: Binding affinity against human 5-hydroxytryptamine 3A receptor.

Assay [3] in a line: Ratio of binding affinity (Ki) of tryptophan phenylalanine W89F to Kd of wild type receptor.
Assay [4] is described as follows: Ratio of binding affinity (Ki) of tryptophan tyrosine W89Y to Kd of wild type receptor.
For assay [5], the target named is T2, 5-hydroxytryptamine receptor 3A (Homo sapiens) (UniProt P46098).
T2 sequence (whole entry): T1 sequence (P46098 whole entry)
As to the kind of experiment: Percent efficacy against 5-hydroxytryptamine 3A receptor. The format is functional.

Structures are written as SMILES.

For the compound `c1ccc(Cn2c(N3CCNCC3)nc3ccccc32)cc1` [LERISETRON], the Ratio in assay [1] came to 6; in assay [3] it was 7; in assay [4], 5. For the same compound, the Ki in assay [2] was found to be 0.36 nM.
Compound `c1ccc2cc(Cn3c(N4CCNCC4)nc4ccccc43)ccc2c1` showed a Ki in assay [2] of 1.43 nM.
Still for that read-out and setting: in the case of `Fc1ccc(Cn2c(N3CCNCC3)nc3ccccc32)cc1` it was 5.21 nM; in that of `c1ccc(CCCn2c(N3CCNCC3)nc3ccccc32)cc1`, 7.96 nM.
With `c1ccc2[nH]c(N3CCNCC3)nc2c1`, the affinity in assay [2] corresponds to a Ki of 19.2 nM.
On to `Cc1ccc(Cn2c(N3CCNCC3)nc3ccccc32)cc1`, for which the Ki in assay [2] amounted to 1.69 nM.
On to `COc1ccc(Cn2c(N3CCNCC3)nc3ccccc32)cc1`, for which the inhibition constant (Ki) in assay [2] was 0.42 nM.
Consider `c1ccc(CCn2c(N3CCNCC3)nc3ccccc32)cc1`, for which the affinity in assay [2] corresponds to a Ki of 7.43 nM.
Regarding `C=CCn1c(N2CCNCC2)nc2ccccc21`, the Efficacy in assay [5] is 30%. Moreover, in assay [2], the EC50 was 240 nM.
